What was measured:
Assay type in all cases: functional, cell-based
Settings in all cases: C57BL/6, BMDC
[1] = Antiinflammatory activity in C57BL/6 mouse BMDC cells assessed as inhibition of LPS-induced TNFalpha production preincubated for 1 hr prior to LPS-stimulation measured after 18 hrs by ELISA
[2] = Antiinflammatory activity in C57BL/6 mouse BMDC cells assessed as inhibition of LPS-induced IL-12 p40 production preincubated for 1 hr prior to LPS-stimulation measured after 18 hrs by ELISA
[3] = Antiinflammatory activity in C57BL/6 mouse BMDC cells assessed as inhibition of LPS-induced IL-6 production preincubated for 1 hr prior to LPS-stimulation measured after 18 hrs by ELISA

Row | SMILES | IC50 [1] | IC50 [2] | IC50 [3]
1 | CC(=O)[C@H]1CC[C@H]2[C@@H]3C[C@H](O[C@@H]4O[C@H](C)[C@@H](O)[C@H](O[C@@H]5OC[C@@H](O[C@@H]6O[C@H](CO)[C@H](O)[C@H](O)[C@H]6O[C@@H]6O[C@H](C)[C@H](O)[C@H](O[C@@H]7O[C@@H](CO)[C@H](O)[C@H]7O)[C@H]6O)[C@H](O)[C@H]5O[C@@H]5O[C@H](C)[C@@H](O)[C@H](O)[C@H]5O)[C@H]4O)[C@H]4C[C@@H](OS(=O)(=O)O)CC[C@]4(C)C3=CC[C@]12C | > 50 µM | > 50 µM | 30.5 µM
2 | CC(=O)CC(=O)C[C@@](C)(O)[C@H]1CC[C@H]2[C@@H]3C[C@H](O[C@@H]4O[C@H](CO)[C@@H](O)[C@H](O[C@@H]5O[C@H](C)[C@@H](O[C@@H]6O[C@H](C)[C@H](O)[C@H](O)[C@H]6O[C@@H]6O[C@H](C)[C@H](O)[C@H](O)[C@H]6O)[C@H](O)[C@H]5O[C@@H]5O[C@H](C)[C@@H](O)[C@H](O)[C@H]5O)[C@H]4O)[C@H]4C[C@@H](OS(=O)(=O)O)CC[C@]4(C)C3=CC[C@@]21C | 1.21 µM | 0.6 µM | 3.51 µM
3 | C/C(=C\C(=O)CC(C)C)[C@H]1CC[C@H]2[C@@H]3C[C@H](O[C@@H]4O[C@H](C)[C@@H](O)[C@H](O[C@@H]5OC[C@@H](O[C@@H]6O[C@H](CO)[C@H](O)[C@H](O)[C@H]6O[C@@H]6O[C@H](C)[C@H](O)[C@H](O[C@@H]7O[C@@H](CO)[C@H](O)[C@H]7O)[C@H]6O)[C@H](O)[C@H]5O[C@@H]5O[C@H](C)[C@@H](O)[C@H](O)[C@H]5O)[C@H]4O)[C@H]4C[C@@H](OS(=O)(=O)O)CC[C@]4(C)C3=CC[C@]12C | > 50 µM | > 50 µM | 3.17 µM
4 | C[S+]([O-])c1ccc(-c2nc(-c3ccc(F)cc3)c(-c3ccncc3)[nH]2)cc1 (stereo unspecified) [SB-203580] | 7.5 µM | 5 µM | 3.5 µM
5 | CC(C)C[C@H](O)C[C@](C)(O)[C@H]1CC[C@H]2[C@@H]3C[C@H](O[C@@H]4O[C@H](C)[C@@H](O)[C@H](O[C@@H]5OC[C@@H](O[C@@H]6O[C@H](CO)[C@H](O)[C@H](O)[C@H]6O[C@@H]6O[C@H](C)[C@H](O)[C@H](O[C@@H]7O[C@@H](CO)[C@H](O)[C@H]7O)[C@H]6O)[C@H](O)[C@H]5O[C@@H]5O[C@H](C)[C@@H](O)[C@H](O)[C@H]5O)[C@H]4O)[C@H]4C[C@@H](OS(=O)(=O)O)CC[C@]4(C)C3=CC[C@@]21C | > 50 µM | > 50 µM | > 50 µM
6 | CC(C)CC(=O)C[C@](C)(O)[C@H]1CC[C@H]2[C@@H]3C[C@H](O[C@@H]4O[C@H](C)[C@@H](O)[C@H](O[C@@H]5OC[C@@H](O[C@@H]6O[C@H](CO)[C@H](O)[C@H](O)[C@H]6O[C@@H]6O[C@H](C)[C@H](O)[C@H](O[C@@H]7O[C@@H](CO)[C@H](O)[C@H]7O)[C@H]6O)[C@H](O)[C@H]5O[C@@H]5O[C@H](C)[C@@H](O)[C@H](O)[C@H]5O)[C@H]4O)[C@H]4C[C@@H](OS(=O)(=O)O)CC[C@]4(C)C3=CC[C@@]21C [PSILASTEROSIDE] | > 50 µM | > 50 µM | > 50 µM
7 | CC(C)=CC(=O)C[C@@H](C)[C@H]1CC[C@H]2[C@@H]3C[C@H](O[C@@H]4O[C@H](CO)[C@@H](O)[C@H](O[C@@H]5O[C@H](C)[C@@H](O[C@@H]6O[C@H](C)[C@H](O)[C@H](O)[C@H]6O[C@@H]6O[C@H](C)[C@H](O)[C@H](O)[C@H]6O)[C@H](O)[C@H]5O[C@@H]5O[C@H](C)[C@@H](O)[C@H](O)[C@H]5O)[C@H]4O)[C@H]4C[C@@H](OS(=O)(=O)O)CC[C@]4(C)C3=CC[C@]12C | > 50 µM | > 50 µM | 4.37 µM
